Laboratory results taken from ChEMBL document CHEMBL1201862, “PubChem BioAssay data set” (2004).
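Briefly, cells in 96-well plates were exposed to five compound concentrations for 48 h, and endpoints were estimated by linear interpolation. At the GI50, growth is halved.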 The source made the active and inactive calls. Cut-off read from the data, not from the text of the source: active = GI50 up to about 1.1 µM and inactive = higher.

Legend:
Assay in all cases: NCI-60 cell line screen, 48 h
SF-268 = tested on: SF-268
MDA-MB-435 = tested on: MDA-MB-435
Malme-3M = tested on: Malme-3M
SR = tested on: SR
MDA-N = tested on: MDA-N
ACHN = tested on: ACHN
Hs-578T = tested on: Hs-578T
RXF 393 = tested on: RXF 393
CCRF-CEM = tested on: CCRF-CEM
SF-539 = tested on: SF-539
HL-60 = tested on: HL-60
UACC-257 = tested on: UACC-257
SNB-75 = tested on: SNB-75
HCC 2998 = tested on: HCC 2998
OVCAR-3 = tested on: OVCAR-3
HOP-62 = tested on: HOP-62
NCI-H460 = tested on: NCI-H460
KM12 = tested on: KM12
EKVX = tested on: EKVX
UACC-62 = tested on: UACC-62

Row | SMILES | GI50 (SF-268) | GI50 (MDA-MB-435) | GI50 (Malme-3M) | GI50 (SR) | GI50 (MDA-N) | GI50 (ACHN) | GI50 (Hs-578T) | GI50 (RXF 393) | GI50 (CCRF-CEM) | GI50 (SF-539) | GI50 (HL-60) | GI50 (UACC-257) | GI50 (SNB-75) | GI50 (HCC 2998) | GI50 (OVCAR-3) | GI50 (HOP-62) | GI50 (NCI-H460) | GI50 (KM12) | GI50 (EKVX) | GI50 (UACC-62)
1 | COC(=O)c1cc(C)ccc1CC(Cc1cccc(C)c1)C(=O)OC (centres undefined) | 13.6 µM (inactive) | > 100 µM (inactive) | > 100 µM (inactive) | 38.4 µM (inactive) | > 100 µM (inactive) | > 100 µM (inactive) | > 100 µM (inactive) | 29.2 µM (inactive) | 46.2 µM (inactive) | > 100 µM (inactive) | 34.7 µM (inactive) | > 100 µM (inactive) | 39.5 µM (inactive) | > 100 µM (inactive) | > 100 µM (inactive) | > 100 µM (inactive) | > 100 µM (inactive) | > 100 µM (inactive) | 59.2 µM (inactive) | –
2 | CCC(=O)NC(OCC1(CC)COC1)(C(F)(F)F)C(F)(F)F | > 100 µM (inactive) | > 100 µM (inactive) | > 100 µM (inactive) | > 100 µM (inactive) | > 100 µM (inactive) | > 100 µM (inactive) | > 100 µM (inactive) | 92.3 µM (inactive) | > 100 µM (inactive) | > 100 µM (inactive) | > 100 µM (inactive) | > 100 µM (inactive) | > 100 µM (inactive) | > 100 µM (inactive) | > 100 µM (inactive) | > 100 µM (inactive) | > 100 µM (inactive) | > 100 µM (inactive) | > 100 µM (inactive) | > 100 µM (inactive)
3 | S=c1nc(Nc2ccc(Br)cc2)c2c3c(sc2[nH]1)CN(N1CCc2c(sc4[nH]c(=S)nc(Nc5ccc(Br)cc5)c24)C1)CC3 | 33.7 µM (inactive) | 15.2 µM (inactive) | 44.1 µM (inactive) | 27.5 µM (inactive) | 12.6 µM (inactive) | 21.1 µM (inactive) | > 50 µM (inactive) | 10.2 µM (inactive) | 23.9 µM (inactive) | 29.3 µM (inactive) | 17.6 µM (inactive) | 28.6 µM (inactive) | > 50 µM (inactive) | 23.1 µM (inactive) | 25.1 µM (inactive) | 17.5 µM (inactive) | 23.8 µM (inactive) | 21.6 µM (inactive) | 35.2 µM (inactive) | 15.1 µM (inactive)
4 | Cc1nc(Nc2nc3ccccc3[nH]2)[nH]c(=O)c1CCO | > 96.6 µM (inactive) | > 100 µM (inactive) | 25.6 µM (inactive) | 30.9 µM (inactive) | > 92 µM (inactive) | 50.9 µM (inactive) | 20.6 µM (inactive) | 21.7 µM (inactive) | > 69 µM (inactive) | 39.9 µM (inactive) | 75.9 µM (inactive) | 45.8 µM (inactive) | > 100 µM (inactive) | > 100 µM (inactive) | > 100 µM (inactive) | > 100 µM (inactive) | 34.6 µM (inactive) | > 100 µM (inactive) | > 100 µM (inactive) | 68.9 µM (inactive)
5 | CCn1cc(C(c2ccc(Cl)cc2)n2ccnc2)c2cc(Br)ccc21 (centres undefined) | 11.2 µM (inactive) | 13.6 µM (inactive) | 17.7 µM (inactive) | 4.35 µM (inactive) | 20.1 µM (inactive) | 12.8 µM (inactive) | 18.7 µM (inactive) | 14.8 µM (inactive) | – | 18.7 µM (inactive) | – | 14.1 µM (inactive) | 13.6 µM (inactive) | 13.2 µM (inactive) | 10.3 µM (inactive) | 14.4 µM (inactive) | – | 11.4 µM (inactive) | > 100 µM (inactive) | 10.9 µM (inactive)
6 | CCN(CC)CCNCc1cc(Cl)cc2c1OCOC2 | > 10 µM (inactive) | > 10 µM (inactive) | > 10 µM (inactive) | > 10 µM (inactive) | > 10 µM (inactive) | > 10 µM (inactive) | > 10 µM (inactive) | > 10 µM (inactive) | > 10 µM (inactive) | > 10 µM (inactive) | > 10 µM (inactive) | – | > 10 µM (inactive) | > 10 µM (inactive) | > 10 µM (inactive) | > 10 µM (inactive) | > 10 µM (inactive) | > 10 µM (inactive) | > 10 µM (inactive) | > 10 µM (inactive)
7 | O=C1c2ccccc2-[n+]2ccc3c([nH]c4ccccc43)c21 [FASCAPLYSIN CHLORIDE] | 0.247 µM (active) | 0.179 µM (active) | 0.0586 µM (active) | 0.132 µM (active) | 0.191 µM (active) | 0.557 µM (active) | 1.24 µM (inactive) | 0.384 µM (active) | 0.337 µM (active) | 0.349 µM (active) | 0.404 µM (active) | 0.327 µM (active) | 0.452 µM (active) | 0.19 µM (active) | 0.145 µM (active) | 1.14 µM (inactive) | 0.263 µM (active) | 0.18 µM (active) | 0.274 µM (active) | 0.242 µM (active)
8 | CC(C)(C)NC(=S)N/N=C/c1ccccn1 | 0.863 µM (active) | 3.61 µM (inactive) | 3.72 µM (inactive) | < 0.01 µM (active) | 1.58 µM (inactive) | < 0.0237 µM (active) | > 32.2 µM (inactive) | < 0.01 µM (active) | < 0.01 µM (active) | 3.28 µM (inactive) | < 0.01 µM (active) | < 0.0467 µM (active) | > 100 µM (inactive) | 6.84 µM (inactive) | < 0.0155 µM (active) | 0.396 µM (active) | 0.968 µM (active) | 1.94 µM (inactive) | 0.0596 µM (active) | 0.578 µM (active)
9 | Cc1cc(C)c2c(n1)S(=O)(=O)N(CCCN1CCN(c3cccc(C(F)(F)F)c3)CC1)C(C(=O)c1ccccc1)=C2O | 8.51 µM (inactive) | 6.11 µM (inactive) | 18.4 µM (inactive) | 2.93 µM (inactive) | 5.5 µM (inactive) | 9.04 µM (inactive) | 17.6 µM (inactive) | 5.73 µM (inactive) | 5.19 µM (inactive) | 10.1 µM (inactive) | 2.61 µM (inactive) | 5.66 µM (inactive) | 3.48 µM (inactive) | – | 4.18 µM (inactive) | 8.38 µM (inactive) | 4.66 µM (inactive) | 5.02 µM (inactive) | 4 µM (inactive) | 10.2 µM (inactive)
10 | c1csc(-c2ccc(-c3cccs3)c3nsnc23)c1 | 33.7 µM (inactive) | 31.4 µM (inactive) | > 39.1 µM (inactive) | 6.47 µM (inactive) | 17.9 µM (inactive) | > 65.2 µM (inactive) | 16.5 µM (inactive) | > 22 µM (inactive) | 8.32 µM (inactive) | 24.4 µM (inactive) | 5.4 µM (inactive) | > 65 µM (inactive) | 19.7 µM (inactive) | – | 2.04 µM (inactive) | 35.6 µM (inactive) | 21.1 µM (inactive) | 0.327 µM (active) | 2.23 µM (inactive) | > 100 µM (inactive)
11 | CN(C)c1ccc(/C=N/c2ccc(Oc3ccc(Cl)cc3)c(Cl)c2)cc1 | 13.7 µM (inactive) | 24.2 µM (inactive) | 15.3 µM (inactive) | 10.9 µM (inactive) | 21.7 µM (inactive) | 28.6 µM (inactive) | 15.4 µM (inactive) | – | 10.8 µM (inactive) | 16.9 µM (inactive) | 11.7 µM (inactive) | 19.8 µM (inactive) | 13.1 µM (inactive) | 17.7 µM (inactive) | 12.9 µM (inactive) | 18.7 µM (inactive) | 19.5 µM (inactive) | 17.1 µM (inactive) | 17.5 µM (inactive) | 17.5 µM (inactive)
12 | COc1ccc(C2=C(Cl)c3cc(OC)c(OC)cc3C2Cl)cc1 (centres undefined) | 16 µM (inactive) | 12.3 µM (inactive) | 19.1 µM (inactive) | 3.27 µM (inactive) | 10.1 µM (inactive) | 13.9 µM (inactive) | 17.3 µM (inactive) | 14.5 µM (inactive) | 2.84 µM (inactive) | 15.3 µM (inactive) | 3.03 µM (inactive) | 17.1 µM (inactive) | 0.499 µM (active) | 14.3 µM (inactive) | 16.8 µM (inactive) | 17.8 µM (inactive) | 9.71 µM (inactive) | 13.6 µM (inactive) | 16.9 µM (inactive) | 14.6 µM (inactive)
13 | NC(=S)N/N=C1\C(=O)Nc2c(Cl)cc(Cl)cc21 | – | 16.7 µM (inactive) | 16.2 µM (inactive) | 16.3 µM (inactive) | 17.4 µM (inactive) | 37.4 µM (inactive) | 24 µM (inactive) | 16 µM (inactive) | 23.5 µM (inactive) | 18.1 µM (inactive) | 12.4 µM (inactive) | 24.2 µM (inactive) | 19 µM (inactive) | 34.5 µM (inactive) | 11.7 µM (inactive) | 13 µM (inactive) | 17.1 µM (inactive) | 18.9 µM (inactive) | 20.3 µM (inactive) | 17.3 µM (inactive)
14 | CO/N=C1/c2sccc2[C@H](NC(=O)CNC(=O)OC(C)(C)C)[C@@H]1O | > 100 µM (inactive) | > 100 µM (inactive) | > 100 µM (inactive) | > 100 µM (inactive) | > 100 µM (inactive) | – | > 100 µM (inactive) | > 100 µM (inactive) | > 100 µM (inactive) | > 100 µM (inactive) | > 100 µM (inactive) | > 100 µM (inactive) | > 100 µM (inactive) | > 100 µM (inactive) | > 100 µM (inactive) | > 100 µM (inactive) | > 100 µM (inactive) | – | > 100 µM (inactive) | > 100 µM (inactive)
